According to patent publication US8759333B2, “Di-azetidinyl diamide as monoacylglycerol lipase inhibitors” (Janssen Pharmaceutica, NV, priority 2010, dated 2014):
pIC50, pKd: −log10 of the molar value.

What was measured:
[1] = target: T1, mutant MGL (mut-MGLL 11-313 L179S L186S) (Homo sapiens, UniProt Q99685, L169S/L176S); experiment: MGL Enzyme Activity Assay, purified mutant MGL, 4MU-B substrate; type: biochemical; conditions: mutant MGL 5 nM, 4MU-B 10 μM, 37° C.; read-out: MGL mutant inh IC50
T1 construct: purified mutant MGL (mut-MGLL 11-313 L179S L186S)
T1 sequence (Q99685 1-303 L169S/L176S): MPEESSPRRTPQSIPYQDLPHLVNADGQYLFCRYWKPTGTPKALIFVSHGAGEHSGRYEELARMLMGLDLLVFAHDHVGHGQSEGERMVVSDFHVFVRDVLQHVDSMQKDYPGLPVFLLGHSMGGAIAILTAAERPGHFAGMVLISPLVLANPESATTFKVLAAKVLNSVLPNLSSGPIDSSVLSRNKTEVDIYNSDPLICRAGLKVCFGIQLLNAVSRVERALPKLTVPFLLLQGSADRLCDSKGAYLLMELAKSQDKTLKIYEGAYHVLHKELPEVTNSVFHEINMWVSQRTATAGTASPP
Method: All rate-based assays were performed in black 384-well polypropylene PCR microplates (Abgene) in a total volume of 30 μL. Substrate 4-methylumbelliferyl butyrate (4MU-B; Sigma) and either purified mutant MGL (mut-MGLL 11-313 L179S L186S) or purified wild type MGL (wt-MGLL 6H-11-313) were diluted separately into 20 mM PIPES buffer (pH=7.0), containing 150 mM NaCl and 0.001% Tween 20. Compounds of Formula (I), including Formulas I(a), I(b), and I(c), were pre-dispensed (50 nL) into the assay plate using a Cartesian Hummingbird prior to adding 4MU-B (25 μL of 1.2× solution to a final concentration of 10 μM) followed by enzyme (5 μL of a 6× solution to a final concentration of 5 nM) to initiate the reaction. Final compound concentrations ranged from 17 to 0.0003 μM. The fluorescence change due to 4MU-B cleavage was monitored with excitation and emission wavelengths of 335 and 440 nm, respectively, and a bandwidth of 10 nm (Safire^2, Tecan) at 37° C. for 5 min.
The IC50 values for the following compounds were determined using Microsoft Office Excel from a fit of the equation to the concentration-response plot of the fractional activity as a function of inhibitor concentration.

MGL = target: T2, MGL (Rattus norvegicus, UniProt Q8R431); experiment: 2-AG Accumulation Assay in rat brain homogenate; type: biochemical; conditions: compound @10 µM, percent of vehicle, read-out: Rat Brain 2AG % VehCntrl (%) @10 µM
T2 construct: one g rat brain was homogenized using a Polytron homogenizer; from tissue; host or cells: rat brain homogenate
T2 sequence (Q8R431 1-303): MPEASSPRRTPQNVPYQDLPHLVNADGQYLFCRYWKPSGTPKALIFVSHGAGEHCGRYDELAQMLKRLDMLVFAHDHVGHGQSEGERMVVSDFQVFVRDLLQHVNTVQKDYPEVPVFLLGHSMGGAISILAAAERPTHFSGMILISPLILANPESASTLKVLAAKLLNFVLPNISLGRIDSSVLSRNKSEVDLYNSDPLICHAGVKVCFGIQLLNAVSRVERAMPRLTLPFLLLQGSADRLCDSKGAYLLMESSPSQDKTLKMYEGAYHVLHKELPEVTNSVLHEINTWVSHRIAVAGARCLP

mutant MGL = target: T3, mutant MGL (Homo sapiens, UniProt Q99685, L169S/L176S); experiment: MGL ThermoFluor Assay - Mutant; type: binding; conditions: 0.07 mg/ml mutant MGL, 100 μM ANS, pH 7.0
T3 construct: purified mutant MGL (mut-MGLL 11-313 L179S L186S)
T3 sequence (Q99685 1-303 L169S/L176S): T1 sequence (Q99685 1-303 L169S/L176S)
Method: The ThermoFluor (TF) assay is a 384-well plate-based binding assay that measures thermal stability of proteins^1,2. The experiments were carried out using instruments available from Johnson & Johnson Pharmaceutical Research & Development, LLC. TF dye used in all experiments was 1,8-ANS (Invitrogen: A-47). Final TF assay conditions used for MGL studies were 0.07 mg/ml of mutant MGL, 100 μM ANS, 200 mM NaCl, 0.001% Tween-20 in 50 mM PIPES (pH=7.0).
Screening compound plates contained 100% DMSO compound solutions at a single concentration. […] Columns 12 and 24 were used as DMSO reference and contained no compound. […] Following compound dispension, protein and dye solutions were added to achieve the final assay volume of 3 μL.
Bar-coded assay plates were robotically loaded onto a thermostatically controlled PCR-type thermal block and then heated from 40 to 90° C. degrees at a ramp-rate of 1° C./min for all experiments. Fluorescence was measured by continuous illumination with UV light (Hamamatsu LC6), supplied via fiber optics and filtered through a band-pass filter (380-400 nm; >60D cutoff). Fluorescence emission of the entire 384-well plate was detected by measuring light intensity using a CCD camera (Sensys, Roper Scientific) filtered to detect 500±25 nm, resulting in simultaneous and independent readings of all 384 wells. A single image with 20-sec exposure time was collected at each temperature, and the sum of the pixel intensity in a given area of the assay plate was recorded vs temperature and fit to standard equations to yield the Tm^1. • 1.
The Kd values for certain compounds of Formula (I) were determined from a fit of the equation to the concentration-response plot of the fractional activity as a function of […]. For some experiments, quantitative NMR spectroscopy (qNMR) was used to measure concentration of the initial 100% DMSO compound solutions and, using the same fitting method, qKd values were determined.

pIC50 [1]	activity at 10 µM (MGL) [%]	pKd (mutant MGL)	Structure (SMILES)
7.16	581		O=C(NC1CN(C2CN(C(=O)c3ccc4cc(-c5ccccc5)ccc4c3)C2)C1)c1nccs1 [Cpd 21, N-{1′-[(6-Phenylnaphthalen-2-yl)carbonyl]-1,3′-biazetidin-3-yl}-1,3-thiazole-2-carboxamide]
7.03	343		O=C(NC1CN(C2CN(C(=O)c3cc4ccc(Br)cc4s3)C2)C1)c1nccs1 [Cpd 23, N-{1′-[(6-Bromo-1-benzothiophen-2-yl)carbonyl]-1,3′-biazetidin-3-yl}-1,3-thiazole-2-carboxamide]
6.22		6.65	O=C(NC1CN(C2CN(C(=O)c3ccc(-c4ccccc4)cc3)C2)C1)c1ccccc1 [Cpd 39, N-[1′-(Biphenyl-4-ylcarbonyl)-1,3′-biazetidin-3-yl]benzamide]
6.00			O=C(NC1CN(C2CN(C(=O)c3ccc4cc(Br)ccc4c3)C2)C1)c1ccccc1 [Cpd 42, N-{1′-[(6-Bromonaphthalen-2-yl)carbonyl]-1,3′-biazetidin-3-yl}benzamide]
5.77		5.48	O=C(NC1CN(C2CN(C(=O)c3ccc(Br)cc3)C2)C1)c1nccs1 [Cpd 43, N-{1′-[(4-Bromophenyl)carbonyl]-1,3′-biazetidin-3-yl}-1,3-thiazole-2-carboxamide]
5.74			O=C(NC1CN(C2CN(C(=O)c3cc4cc(C(F)(F)F)ccc4s3)C2)C1)c1ccccc1 [Cpd 44, N-(1′-{[5-(Trifluoromethyl)-1-benzothiophen-2-yl]carbonyl}-1,3′-biazetidin-3-yl)benzamide]
5.43		5.47	O=C(NC1CN(C2CN(C(=O)c3ccc4nc(Br)sc4c3)C2)C1)c1cscn1 [Cpd 46, N-{1′-[(2-Bromo-1,3-benzothiazol-6-yl)carbonyl]-1,3′-biazetidin-3-yl}-1,3-thiazole-4-carboxamide]
> 8.30	722		O=C(NC1CN(C2CN(C(=O)c3ccc4c(-c5ccccc5)cccc4c3)C2)C1)c1nccs1 [Cpd 53, N-{1′-[(5-Phenylnaphthalen-2-yl)carbonyl]-1,3′-biazetidin-3-yl}-1,3-thiazole-2-carboxamide]
7.02	294		O=C(c1ccc2nc(-c3ccc(Cl)cc3)oc2c1)N1CC(N2CC(N3Cc4ccccc4C3=O)C2)C1 [Cpd 88, 2-(1′-{[2-(4-Chlorophenyl)-1,3-benzoxazol-6-yl]carbonyl}-1,3′-biazetidin-3-yl)-2,3-dihydro-1H-isoindol-1-one]
6.81			O=C(c1ccc2cc(Br)ccc2c1)N1CC(N2CC(N3Cc4ccccc4C3=O)C2)C1 [Cpd 90, 2-{1′-[(6-Bromonaphthalen-2-yl)carbonyl]-1,3′-biazetidin-3-yl}-2,3-dihydro-1H-isoindol-1-one]
6.63			O=C(c1ccc(N2CCCCC2)cc1)N1CC(N2CC(N3Cc4ccccc4C3=O)C2)C1 [Cpd 91, 2-{1′-[(4-Piperidin-1-ylphenyl)carbonyl]-1,3′-biazetidin-3-yl}-2,3-dihydro-1H-isoindol-1-one]
6.12			O=C(c1ccc(-c2cc3ccccc3s2)cc1)N1CC(N2CC(N3Cc4ccccc4C3=O)C2)C1 [Cpd 95, 2-(1′-{[4-(1-Benzothiophen-2-yl)phenyl]carbonyl}-1,3′-biazetidin-3-yl)-2,3-dihydro-1H-isoindol-1-one]
5.33			O=C(c1ccc(Br)cc1)N1CC(N2CC(N3Cc4ccccc4C3=O)C2)C1 [Cpd 96, 2-{1′-[(4-Bromophenyl)carbonyl]-1,3′-biazetidin-3-yl}-2,3-dihydro-1H-isoindol-1-one]

The next lines start with the molecule.

Structure (SMILES)	pIC50 [1]	activity at 10 µM (MGL) [%]	pKd (mutant MGL)
Cc1c(C(=O)N2CC(N3CC(NC(=O)c4nccs4)C3)C2)sc2ccc(Cl)cc12 [Cpd 15, N-{1′-[(5-Chloro-3-methyl-1-benzothiophen-2-yl)carbonyl]-1,3′-biazetidin-3-yl}-1,3-thiazole-2-carboxamide]	7.55	611	
O=C(NC1CN(C2CN(C(=O)c3ccc4c(Br)cccc4c3)C2)C1)c1nccs1 [Cpd 19, N-{1′-[(5-Bromonaphthalen-2-yl)carbonyl]-1,3′-biazetidin-3-yl}-1,3-thiazole-2-carboxamide]	7.20	418	
O=C(NC1CN(C2CN(C(=O)c3ccc(Cc4cccc(C(F)(F)F)c4)cc3)C2)C1)c1nccs1 [Cpd 20, N-[1′-({4-[3-(Trifluoromethyl)benzyl]phenyl}carbonyl)-1,3′-biazetidin-3-yl]-1,3-thiazole-2-carboxamide]	7.19	977	
O=C(NC1CN(C2CN(C(=O)c3ccc4c(Br)cccc4c3)C2)C1)c1ccccc1 [Cpd 24, N-{1′-[(5-Bromonaphthalen-2-yl)carbonyl]-1,3′-biazetidin-3-yl}benzamide]	7.00	73	
O=C(NC1CN(C2CN(C(=O)c3ccc4ccn(-c5ccccc5)c4c3)C2)C1)c1nccs1 [Cpd 27, N-{1′-[(1-Phenyl-1H-indol-6-yl)carbonyl]-1,3′-biazetidin-3-yl}-1,3-thiazole-2-carboxamide]	6.78		6.35
O=C(NC1CN(C2CN(C(=O)c3ccc(Cc4ccccc4)cc3)C2)C1)c1ccccc1 [Cpd 31, N-{1′-[(4-Benzylphenyl)carbonyl]-1,3′-biazetidin-3-yl}benzamide]	6.57		6.81
O=C(NC1CN(C2CN(C(=O)c3ccc4nc(-c5ccccc5)oc4c3)C2)C1)c1ccccc1 [Cpd 41, N-{1′-[(2-Phenyl-1,3-benzoxazol-6-yl)carbonyl]-1,3′-biazetidin-3-yl}benzamide]	6.03		
O=C(NC1CN(C2CN(C(=O)c3ccc(Oc4ccccc4)cc3)C2)C1)c1ccccc1 [Cpd 45, N-{1′-[(4-Phenoxyphenyl)carbonyl]-1,3′-biazetidin-3-yl}benzamide]	5.56		6.08
O=C(c1ccc2c(Br)cccc2c1)N1CC(N2CC(N3Cc4ccccc4C3=O)C2)C1 [Cpd 83, 2-{1′-[(5-Bromonaphthalen-2-yl)carbonyl]-1,3′-biazetidin-3-yl}-2,3-dihydro-1H-isoindol-1-one]	7.64	416	
O=C(c1ccc(Cc2cccc(C(F)(F)F)c2)cc1)N1CC(N2CC(N3Cc4ccccc4C3=O)C2)C1 [Cpd 86, 2-[1′-({4-[3-(Trifluoromethyl)benzyl]phenyl}carbonyl)-1,3′-biazetidin-3-yl]-2,3-dihydro-1H-isoindol-1-one]	7.30	447	
O=C(c1ccc2c(ccn2-c2ccccc2C(F)(F)F)c1)N1CC(N2CC(N3Cc4ccccc4C3=O)C2)C1 [Cpd 89, 2-[1′-({1-[2-(Trifluoromethyl)phenyl]-1H-indol-5-yl}carbonyl)-1,3′-biazetidin-3-yl]-2,3-dihydro-1H-isoindol-1-one]	7.01	663	
